Measured values published in patent publication US20260159512A1, “BCAT2 INHIBITORS” (AGIOS PHARMACEUTICALS, INC., priority 2021, published 2026).

What was measured:
Settings in all cases: average where tested multiple times
[1] = target: T1, BCAT2 (Homo sapiens, UniProt O15382); experiment: BCAT2 in vitro cell inhibition using engineered A549 cells (KMV cell assay, 13C6-KMV by LC-MS/MS); assay type: cell-based; set-up: The result was an engineered A549 cell line that expressed endogenous BCAT2; endogenous in cells; host or cells: A549 cells with MUT and BCAT1 knocked out by CRISPR/CAS9; key to BCAT2 Cell Inhibition: A: less than or equal to 0.100 μM; B: greater than 0.100 and less than or equal to 0.500 μM; C: greater than 0.500 and less than or equal to 1.000 μM; d: greater than 1.000 μM; E: no fit
T1 sequence (O15382 28-392): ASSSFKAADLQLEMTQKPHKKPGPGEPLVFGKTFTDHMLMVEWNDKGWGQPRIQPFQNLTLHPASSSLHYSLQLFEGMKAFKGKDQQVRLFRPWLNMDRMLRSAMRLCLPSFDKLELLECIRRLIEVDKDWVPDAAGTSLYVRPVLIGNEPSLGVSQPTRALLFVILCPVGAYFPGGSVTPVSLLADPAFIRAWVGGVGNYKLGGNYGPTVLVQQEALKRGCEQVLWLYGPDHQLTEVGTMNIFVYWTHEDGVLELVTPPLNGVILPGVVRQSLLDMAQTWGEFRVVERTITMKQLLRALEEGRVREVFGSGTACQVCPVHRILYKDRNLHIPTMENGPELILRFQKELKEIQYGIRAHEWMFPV

[2] = target: T2, hBCAT1 (Homo sapiens, UniProt P54687); experiment: BCAT1 in vitro enzyme inhibition assay (resazurin/diaphorase-coupled fluorescence); assay type: biochemical
T2 sequence (P54687 1-386): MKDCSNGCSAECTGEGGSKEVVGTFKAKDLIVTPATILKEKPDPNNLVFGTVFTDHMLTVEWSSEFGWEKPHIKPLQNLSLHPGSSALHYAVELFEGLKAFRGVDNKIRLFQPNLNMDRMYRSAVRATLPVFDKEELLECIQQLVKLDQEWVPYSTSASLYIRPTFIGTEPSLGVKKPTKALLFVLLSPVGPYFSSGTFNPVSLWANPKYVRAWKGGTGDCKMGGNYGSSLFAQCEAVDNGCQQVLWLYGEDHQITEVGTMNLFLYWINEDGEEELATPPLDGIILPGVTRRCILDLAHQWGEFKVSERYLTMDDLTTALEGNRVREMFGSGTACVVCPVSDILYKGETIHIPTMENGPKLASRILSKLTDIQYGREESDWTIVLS
Summary of the method: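 Human BCAT1 activity read by resazurin/diaphorase-coupled fluorescence. Compounds added from 50× DMSO stocks at 1:50, giving 10-point 3-fold titrations from 100 μM top final concentration. Run in technical duplicate; repeat tests averaged.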

[3] = target: T1, BCAT2; experiment: BCAT2 in vitro enzyme inhibition assay (resazurin/diaphorase-coupled fluorescence); assay type: biochemical
Summary of the method: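 Coupled fluorescence readout: glutamate formed from L-leucine/α-ketoglutarate transamination drives GDH/NAD/diaphorase reduction of resazurin (Ex 540/Em 590). Human BCAT2 was first exposed 1 h at room temperature to compound, top final 100 μM in 3-fold, 10-point series; substrate reaction ran 1 h before SDS quench, in technical duplicate with DMSO max and enzyme-free min controls.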

IC50 [1] | IC50 [2] | IC50 [3] | BCAT2 Cell Inhibition [1] | Structure (SMILES)
≤ 100 nM | < 500 nM | ≤ 100 nM |  | C#Cc1cnc(C(=O)N[C@H]2CCC[C@@H](n3c(-c4ccccn4)nc4cnc(-n5nccn5)cc43)C2)s1 [Example 20, 5-ethynyl-N-((1S,3R)-3-(2-(pyridin-2-yl)-6-(2H-1,2,3-triazol-2-yl)-1H-imidazo[4,5-c]pyridin-1-yl)cyclohexyl)thiazole-2-carboxamide]
100 to 500 nM | 500 to 1000 nM | ≤ 100 nM |  | O=C(N[C@H]1CCC[C@@H](n2c(-c3ccccn3)nc3cnc(-n4nccn4)cc32)C1)c1ncc(C(F)F)s1 [Example 21, 5-(difluoromethyl)-N-((1S,3R)-3-(2-(pyridin-2-yl)-6-(2H-1,2,3-triazol-2-yl)-1H-imidazo[4,5-c]pyridin-1-yl)cyclohexyl)thiazole-2-carboxamide]
≤ 100 nM | < 500 nM | ≤ 100 nM |  | O=C(N[C@H]1CCC[C@@H](n2c(-c3ncccc3F)nc3cnc(-n4nccn4)cc32)C1)c1ncc(Br)s1 [Example 22, 5-bromo-N-((1S,3R)-3-(2-(3-fluoropyridin-2-yl)-6-(2H-1,2,3-triazol-2-yl)-1H-imidazo[4,5-c]pyridin-1-yl)cyclohexyl)thiazole-2-carboxamide]
≤ 100 nM | < 500 nM | ≤ 100 nM |  | C#Cc1cnc(C(=O)N[C@H]2CCC[C@@H](n3c(-c4ncccc4F)nc4cnc(-n5nccn5)cc43)C2)s1 [Example 23, 5-ethynyl-N-((1S,3R)-3-(2-(3-fluoropyridin-2-yl)-6-(2H-1,2,3-triazol-2-yl)-1H-imidazo[4,5-c]pyridin-1-yl)cyclohexyl)thiazole-2-carboxamide]
≤ 100 nM | < 500 nM | ≤ 100 nM |  | O=C(N[C@H]1CCC[C@@H](n2c(-c3ncccc3F)nc3cnc(-n4nccn4)cc32)C1)c1ncc(C(F)F)s1 [Example 24, 5-(difluoromethyl)-N-((1S,3R)-3-(2-(3-fluoropyridin-2-yl)-6-(2H-1,2,3-triazol-2-yl)-1H-imidazo[4,5-c]pyridin-1-yl)cyclohexyl)thiazole-2-carboxamide]
≤ 100 nM | < 500 nM | ≤ 100 nM |  | O=C(N[C@H]1CCC[C@@H](n2c(-c3ccccc3F)nc3cnc(-n4nccn4)cc32)C1)c1ncc(C(F)F)s1 [Example 25, 5-(difluoromethyl)-N-((1S,3R)-3-(2-(2-fluorophenyl)-6-(2H-1,2,3-triazol-2-yl)-1H-imidazo[4,5-c]pyridin-1-yl)cyclohexyl)thiazole-2-carboxamide]
 | > 5000 nM | 100 to 500 nM | E | O=C(N[C@H]1CCC[C@@H](n2c(-c3ccccn3)nc3cnc(-n4cncn4)cc32)C1)c1ncc(C(F)F)s1 [Example 26, 5-(difluoromethyl)-N-((1S,3R)-3-(2-(pyridin-2-yl)-6-(1H-1,2,4-triazol-1-yl)-1H-imidazo[4,5-c]pyridin-1-yl)cyclohexyl)thiazole-2-carboxamide]
500 to 1000 nM | 1000 to 5000 nM | ≤ 100 nM |  | O=C(N[C@H]1CCC[C@@H](n2c(-c3ncccc3F)nc3cnc(-n4cncn4)cc32)C1)c1ncc(C(F)F)s1 [Example 28, 5-(difluoromethyl)-N-((1S,3R)-3-(2-(3-fluoropyridin-2-yl)-6-(1H-1,2,4-triazol-1-yl)-1H-imidazo[4,5-c]pyridin-1-yl)cyclohexyl)thiazole-2-carboxamide]
100 to 500 nM | 500 to 1000 nM | ≤ 100 nM |  | C#Cc1cnc(C(=O)N[C@H]2CCC[C@@H](n3c(-c4ncccc4F)nc4cnc(-n5cncn5)cc43)C2)s1 [Example 29, 5-ethynyl-N-((1S,3R)-3-(2-(3-fluoropyridin-2-yl)-6-(1H-1,2,4-triazol-1-yl)-1H-imidazo[4,5-c]pyridin-1-yl)cyclohexyl)thiazole-2-carboxamide]
